In ChEMBL document CHEMBL1152211, “Structure-activity study at positions 3 and 4 of human neuropeptide S” (Bioorg Med Chem, 2008):
Non-standard residues stand in square brackets, D forms with d. Residues, ends and D or L forms follow the SMILES beside them. 3Pal = N[C@@H](Cc1cccnc1)C(=O)O; 4Pal = N[C@@H](Cc1ccncc1)C(=O)O

Target: T1, Neuropeptide S receptor (Mus musculus) (UniProt Q8BZP8)
T1 sequence (whole entry): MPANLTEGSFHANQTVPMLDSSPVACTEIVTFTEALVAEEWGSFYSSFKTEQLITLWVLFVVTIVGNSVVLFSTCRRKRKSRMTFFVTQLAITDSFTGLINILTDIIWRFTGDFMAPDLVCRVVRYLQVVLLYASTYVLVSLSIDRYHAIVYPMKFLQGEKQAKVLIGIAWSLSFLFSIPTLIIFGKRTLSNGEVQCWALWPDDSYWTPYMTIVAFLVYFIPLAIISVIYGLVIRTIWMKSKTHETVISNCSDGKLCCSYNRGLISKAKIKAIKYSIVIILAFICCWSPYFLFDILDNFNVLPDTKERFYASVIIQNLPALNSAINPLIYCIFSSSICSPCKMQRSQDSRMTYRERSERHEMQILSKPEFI
Test: Agonist activity at mouse NPSR expressed in HEK293 cells assessed as increase in intracellular calcium mobilization at 10 uM by FLIPR
Type: functional, cell-based

Molecule	Activity
CSCC[C@H](NC(=O)CNC(=O)[C@@H](NC(=O)CNC(=O)[C@@H](NC(=O)CNC(=O)[C@H](CC(N)=O)NC(=O)[C@H](Cc1cccnc1)NC(=O)[C@H](Cc1ccccc1)NC(=O)[C@@H](N)CO)C(C)C)[C@@H](C)O)C(=O)N[C@@H](CCCCN)C(=O)N[C@@H](CCCCN)C(=O)N[C@H](C(=O)N[C@@H](CO)C(=O)N[C@@H](Cc1ccccc1)C(=O)N[C@@H](CCC(N)=O)C(=O)N[C@@H](CCCNC(=N)N)C(=O)N[C@@H](C)C(=O)N[C@@H](CCCCN)C(=O)N[C@@H](CO)C(=O)O)[C@@H](C)O (H-SF[3Pal]NGVGTGMKKTSFQRAKS-OH)	42%
CSCC[C@H](NC(=O)CNC(=O)[C@@H](NC(=O)CNC(=O)[C@@H](NC(=O)CNC(=O)[C@H](CC(N)=O)NC(=O)[C@H](Cc1ccncc1)NC(=O)[C@H](Cc1ccccc1)NC(=O)[C@@H](N)CO)C(C)C)[C@@H](C)O)C(=O)N[C@@H](CCCCN)C(=O)N[C@@H](CCCCN)C(=O)N[C@H](C(=O)N[C@@H](CO)C(=O)N[C@@H](Cc1ccccc1)C(=O)N[C@@H](CCC(N)=O)C(=O)N[C@@H](CCCNC(=N)N)C(=O)N[C@@H](C)C(=O)N[C@@H](CCCCN)C(=O)N[C@@H](CO)C(=O)O)[C@@H](C)O (H-SF[4Pal]NGVGTGMKKTSFQRAKS-OH)	154%
H-SFDNGVGTGMKKTSFQRAKS-OH	73%
H-SFENGVGTGMKKTSFQRAKS-OH	89%
H-SFFNGVGTGMKKTSFQRAKS-OH	46%
H-SFLNGVGTGMKKTSFQRAKS-OH	36%
H-SFNNGVGTGMKKTSFQRAKS-OH	161%
H-SFRDGVGTGMKKTSFQRAKS-OH	146%
H-SFRFGVGTGMKKTSFQRAKS-OH	118%
H-SFSNGVGTGMKKTSFQRAKS-OH	175%
H-SFVNGVGTGMKKTSFQRAKS-OH	129%
H-SFYNGVGTGMKKTSFQRAKS-OH	73%
